Source: patent US20050215490A1, “Polyene polyketides and methods of treating bacterial infections” (Ecopia BioSciences, Inc., priority 2003, published 2005)
Values after ≈ are worked out from the molar mass of the structure shown. Where two headings read alike, the source gives them in different places.

Columns and labels:
[1] = test system: S. aureus MRSA-hVISA (ATCC™ 700699); assay: Minimal bactericidal concentration (NCCLS M26-A); type: cell-based, Staphylococcus aureus; conditions: for MBC: Staphylococcus aureus, more than 99.9% growth inhibition
Protocol: (§1) Minimal bactericidal concentration (MBC) was also determined for Compounds 1 and 2. […] MBC were measured against three Staphylococcus strains, namely sp. aureus MSSA (ATCC™ 6538P), sp. aureus MRSA-hVISA (ATCC™ 700699) and sp. epidermidis (ATCC™ 12228). The results, shown in Table 6 below, were consistent with bactericidal activity (MBC/MIC ratio were of 1 to 2).
(§2) MBC determination was performed according to the NCCLS guideline M26-A: Methods for Determining Bactericidal Activity of Antimicrobial Agents (NCCLS document […], ISBN 1-56238-394-9; NCCLS, 940 West Valley Road, Suite 1400, Wayne, Pa. 19087-1898 USA), the content of which is incorporated herein by reference.
(§3) Microdilutions broth assays were performed using the same procedure as for MIC determination, Example 6. 24 hours post-incubation, cells were collected in wells corresponding to the MIC, 2×MIC and 4×MIC. Collected cells were plated on agar media. MBC were determined as the drug concentration at which more than 99.9% growth inhibition was observed. As a reference for 100% growth, cells grown in media only were also plated.

[2] = test system: S. aureus MSSA (ATCC™ 6538P); assay: Minimal bactericidal concentration (NCCLS M26-A); type: cell-based, Staphylococcus aureus; conditions: for MBC: Staphylococcus aureus, more than 99.9% growth inhibition
Protocol: as §1, §2, §3

[3] = test system: Enterococcus faecalis VRE-2 (ATCC™ 51299); assay: MIC, broth microdilution (NCCLS M7-A5); type: cell-based; conditions: E. faecalis ATCC 51299, BHI, 35° C., 18 hours, read-out: MIC
Protocol: (§4) Antibacterial activity of Compounds 1 and 2 (Table 4) was measured by determining the minimal inhibitory concentration (MIC) necessary to obtain a complete inhibition of bacteria growth in eight indicator strains, namely Staphylococcus aureus (ATCC™ 6538P), Staphylococcus aureus MRS3 (ATCC™ 700699), Staphylococcus epidermidis (ATCC™ 12228), Bacillus subtilis (ATCC™ 23857), Bacillus megaterium (ATCC™ 14581), Enterococcus faecalis VRE-1 (ATCC™ 29212), Enterococcus faecalis VRE-2 (ATCC™ 51299) and Micrococcus luteus (ATCC™ 9341). Indicator strains preparation and MIC determination were performed according to the National Committee for Clinical Laboratory Standards (NCCLS) guideline M7-A5 Methods for Dilution Antimicrobial Susceptibility Tests for Bacteria That Grow Aerobically; Approved Standard-Fifth Edition. (NCCLS document M7-A5, ISBN 1-56238-394-9; NCCLS, 940 West Valley Road, Suite 1400, Wayne, Pa. 19087-1898 USA), the content of which is incorporated herein by reference.
(§5) Compounds 1 and 2 were prepared as 100× stock solution in DMSO, with concentrations ranging from 3.2 mg/ml to 0.00625 mg/ml (a two-fold dilution series over […]). An aliquot of each 100× stock solution was diluted 50-fold in test medium described below to give a set of ten (10) 2× solutions ranging from 64 to 0.125 μg/mL. 50 μl of each of the ten 2× solutions was aliquoted into the corresponding well of a 12-well row, with the final well reserved for medium alone control. Each test was made in duplicate.
(§6) Vancomycin (Sigma™) used as positive control compounds, was prepared as 2× stock solutions in sterile, double-distilled water (ddH2O) ranging from 64 μg/ml to […] (a two-fold dilution series over 10 points). An aliquot of 50 μl corresponding to each concentration (at 2×) was then transferred to 96-well microplates to obtain a series of eleven two-fold dilutions.
(§7) An isolated colony of each of the eight indicator strains was used to inoculate tubes containing 3 ml of test medium. Mueller-Hinton test medium was used for Staphylococcus aureus (ATCC™ 6538P), Staphylococcus aureus MRS3 (ATCC™ 700699), Staphylococcus epidermidis (ATCC™ 12228), Bacillus subtilis (ATCC™ 23857), Bacillus megaterium (ATCC™ 14581) and Micrococcus luteus (ATCC™ 9341) indicator strains, and BHI (Brain-Heart Infusion broth) test medium was used for Enterococcus faecalis VRE-1 (ATCC™ 29212) and Enterococcus faecalis VRE-2 (ATCC™ 51299) indicator strains. Cells were grown overnight at 28° C. with shaking. Inoculum density for each indicator strain was adjusted to OD600=0.1 in 5 ml 0.85% saline, then further diluted 1/100 in appropriate medium. 50 μl of the final dilution (in test medium) of each indicator strain was added to each well of a 12-well row. This brings the final dilution of the test article or control compound in solution to 1×. The final inoculum is approximately 5×10^5 CFU/ml.
(§8) The indicator strains were incubated with 11 concentrations of each of Compounds 1 and 2, Vancomycin (Sigma™) control compound and one media alone control. For MIC determination, assay plates were incubated at 35° C. for 18 hours.

[4] = test system: Micrococcus luteus (ATCC™ 9341); assay: MIC, broth microdilution (NCCLS M7-A5); type: cell-based; conditions: ATCC9341, M. luteus ATCC 9341, Mueller-Hinton, 35° C., 18 hours, read-out: MIC
Protocol: as §4, §5, §6, §7, §8

[5] = test system: Enterococcus faecalis VRE-1 (ATCC™ 29212); assay: MIC, broth microdilution (NCCLS M7-A5); type: cell-based; conditions: E. faecalis ATCC 29212, BHI, 35° C., 18 hours, read-out: MIC
Protocol: as §4, §5, §6, §7, §8

[6] = test system: Staphylococcus aureus MRS3 (ATCC™ 700699); assay: MIC, broth microdilution (NCCLS M7-A5); type: cell-based; conditions: read-out: MIC
Protocol: as §4, §5, §6, §7, §8

[7] = test system: S. epidermidis (ATCC™ 12228); assay: Minimal bactericidal concentration (NCCLS M26-A); type: cell-based, Staphylococcus epidermidis; conditions: for MBC: Staphylococcus epidermidis, more than 99.9% growth inhibition
Protocol: as §1, §2, §3

CD-1 female mice = assay: in vivo; conditions: CD-1, mouse
Protocol: A. Toxicity: Acute toxicities were determined using CD-1 female mice (supplied by Charles River Laboratories, Wilmington, Mass.) having a bodyweight of 18-25 g, and about 6 weeks of age. Compounds 1 and 2 at doses ranging from 1 to 70 mg/kg (formulated in 20% propylene glycol/water for a total volume of 10 μL/g of weight) were administered intraperitoneal (i.p.) and intravenous (i.v.) to groups of 5 mice (5 mice per concentration, per mode of administration). Two groups of 3 mice were injected with vehicle only. Mice were observed immediately after injection, within 4 hours and once a day for the subsequent days. Acute toxicity studies of Compound 1 in mice indicated no observable effect and high dose tolerability: 70 mg/kg intraperitoneal and 50 mg/kg intravenous (an MTD of 250 mg/kg was also determined by oral administration). […] In vitro Haemolytic activity results are also shown in Table 7, along with the in vivo toxicity and efficacy of Compound 1.

[8] = ATCC700699, S. aureus ATCC 700699, Mueller-Hinton, 35° C., 18 hours

Compound	MBC/MIC [1]	MBC [1]	MBC/MIC [2]	MBC [2]	MIC [3]	MIC [4]	MIC [5]	MIC [6, 8]	MIC ([6]; Table 6, S. aureus MRSA-hVISA)	MBC/MIC [7]	MBC [7]	Acute toxicity: dose with no observable effect (high dose tolerability) (CD-1 female mice; iv)	Acute toxicity: dose with no observable effect (high dose tolerability) (CD-1 female mice; ip)
C\C(=C/C=C/C=C/C=C/C=C/C(C)C(OC1OC(C(=O)O)C(O)C(O)C1O)/C(C)=C/C(C)CCC/C=C/C(C)C/C=C/CCCNC(=N)N)C(=O)NC1=C(O)CCC1=O (stereo not shown) [Compound 2, 6-{16-guanidino-1-[11-(2-hydroxy-5-oxocyclopent-1-enylcarbamoyl)-1-methyldodeca-2,4,6,8,10-pentaenyl]-2,4,10-trimethylhexadeca-2,8,12-trienyloxy}-3,4,5-trihydroxy-tetrahydro-pyran-2-carboxylic acid]	2	2 µg/mL (≈ 2.43 µM)	2	2 µg/mL (≈ 2.43 µM)	16 µg/mL (≈ 19.4 µM)	1 to 2 µg/mL (≈ 1.22 to 2.43 µM)	16 µg/mL (≈ 19.4 µM)	1 µg/mL (≈ 1.22 µM)	1 µg/mL (≈ 1.22 µM)	1	1 µg/mL (≈ 1.22 µM)	25 mg/kg	
CC(=CC=CC=CC=CC=CC(C)C(OC1OC(C(=O)O)C(O)C(O)C1O)C(C)=CC(C)CCCC=CC(C)CC=CCCCN(C)C(=N)N)C(=O)NC1=C(O)CCC1=O (stereo not shown) [Compound 1, 3,4,5-trihydroxy-6-[1-[11-(2-hydroxy-5-oxocyclopent-1-enylcarbamoyl)-1-methyldodeca-2,4,6,8,10-pentaenyl]-2,4,10-trimethyl-16-(N-methyl-guanidino)-hexadeca-2,8,12-trienyloxy]-tetrahydropyran-2-carboxylic acid]	1	4 µg/mL (≈ 4.78 µM)	2	4 µg/mL (≈ 4.78 µM)	16 µg/mL (≈ 19.1 µM)	4 µg/mL (≈ 4.78 µM)	8 to 16 µg/mL (≈ 9.56 to 19.1 µM)	4 µg/mL (≈ 4.78 µM)	4 µg/mL (≈ 4.78 µM)	1	4 µg/mL (≈ 4.78 µM)	50 mg/kg	70 mg/kg
